Read-outs that look alike come from different tables or passages of the source.
How the values were obtained:
[1] = design: method as in PMID 21471376, PMID 26306982; settings: remaining compound after 30-min incubation in human liver microsomes; cited from earlier work
human 11β-HSD2 [2] = biological target: T1, human 11β-HSD2 (Homo sapiens, UniProt P80365); settings: cited from earlier work; for IC50: read-out: HEK hHSD2 IC50
T1 construct: stably transfected with the full-length gene coding for human 11β-HSD2; expressed in transfected cells; host or cells: HEK293
T1 sequence (P80365 1-405): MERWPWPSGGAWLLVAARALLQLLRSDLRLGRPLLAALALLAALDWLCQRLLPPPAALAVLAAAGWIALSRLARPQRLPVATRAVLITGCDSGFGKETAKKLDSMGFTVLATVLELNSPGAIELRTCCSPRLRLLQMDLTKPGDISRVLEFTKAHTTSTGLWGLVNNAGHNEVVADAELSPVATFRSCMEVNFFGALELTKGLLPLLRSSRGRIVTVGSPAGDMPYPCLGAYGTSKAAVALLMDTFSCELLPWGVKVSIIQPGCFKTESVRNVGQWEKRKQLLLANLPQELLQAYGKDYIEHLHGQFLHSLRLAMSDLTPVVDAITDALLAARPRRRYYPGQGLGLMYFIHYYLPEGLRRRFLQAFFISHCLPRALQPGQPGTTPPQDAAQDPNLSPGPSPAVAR

human 11β-HSD1 [3] = biological target: T2, human 11β-HSD1 (Homo sapiens, UniProt P28845); assay: 11β-HSD1 enzyme inhibition assay in human liver microsomes (3H-cortisone to 3H-cortisol, SPA); format: biochemical; settings: human liver microsomes; for inhibition at 10 µM: relative to no inhibitor control, read-out: hHSD1 % inh at 10 µM; for IC50: read-out: hHSD1 IC50
T2 construct: The assay uses human liver microsomes (HLM), where the enzyme is expressed; tissue Celsis In-vitro Technologies; host or cells: mixed sex human liver microsomes
T2 sequence (P28845 whole entry): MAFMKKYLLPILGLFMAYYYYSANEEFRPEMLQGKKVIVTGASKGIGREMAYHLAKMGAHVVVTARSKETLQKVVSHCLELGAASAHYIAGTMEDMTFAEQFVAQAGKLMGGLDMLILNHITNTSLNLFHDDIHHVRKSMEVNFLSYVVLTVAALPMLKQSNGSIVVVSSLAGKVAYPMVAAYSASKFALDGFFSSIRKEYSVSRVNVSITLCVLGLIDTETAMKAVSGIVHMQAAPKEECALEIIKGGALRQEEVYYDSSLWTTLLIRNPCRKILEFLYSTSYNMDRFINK
Procedure: A preliminary screen was performed using a human microsome assay with compounds at 10 µM in order to assess their potential inhibition of the target enzyme (Table 2). Percentage of inhibition was determined by measuring the conversion of ^3H-cortisone to ^3H-cortisol by capturing liberated ^3H-cortisol on anti-cortisol (HyTest Ltd., Turku, Finland)-coated scintillation proximity assay beads. The assay uses human liver microsomes (HLM), where the enzyme is expressed, and NADPH as the cofactor needed by the enzyme. Eight of the thirteen new compounds presented 100% inhibition of the human 11β-HSD1 in this single concentration assay, so dose-response curves were performed to get their IC50 values.
11β-HSD1 activity was determined in mixed sex, human liver microsomes (HLM, Celsis In-vitro Technologies) by measuring the conversion of ^3H-cortisone to ^3H-cortisol. Percentage inhibition was determined relative to a no inhibitor control. An amount of 5 μg of HLM were pre-incubated at 37 °C for 15 min with inhibitor and 1 mM NADPH in a final volume of 90 μL Krebs buffer. 10 μL of 200 nM ^3H-cortisone was then added followed by incubation at 37 °C for a further 30 min. The assay was terminated by rapid freezing on dry ice and ^3H-cortisone to ^3H-cortisol conversion determined in 50 μL of the defrosted reaction by capturing liberated ^3H-cortisol on anti-cortisol (HyTest Ltd)-coated scintillation proximity assay beads (protein A-coated YSi, GE Healthcare). Reported values are the average of 1–3 measurements. A nanomolar 11β-HSD1 inhibitor, UE2316, was added as a positive control within in each set of assays.

human 11β-HSD2 [4] = biological target: T1, human 11β-HSD2; assay: Cellular 11β-HSD2 enzyme inhibition assay (HEK293 stably transfected); format: cell-based; settings: for inhibition at 10 µM: HEK293, 10 µM, read-out: HEK hHSD2 % inh at 10 µM
Procedure: (§1) Selectivity over 11β-HSD2 was also assessed in a cell-based assay using the same methodology as before (HEK293 stably transfected with the 11β-HSD2 gene). […] Finally, metabolic stability was determined using HLM, which are widely used to predict the degree of primary metabolic clearance in the liver. Each compound was incubated over 30 min with HLM and the percentage of remaining compound after this incubation period was determined by calculating compound concentration after and before by LC/MS.
For measurement of inhibition of 11β-HSD2, HEK293 cells stably transfected with the full-length gene coding for human 11β-HSD2 were used. The protocol was the same as for the cellular 11β-HSD1 enzyme inhibition assay, only changing the substrate, this time cortisol, and the concentrations of the tested compounds, 10, 1, and 0.1 µM. Reported values are the average of 1–3 measurements.

[5] = Microsomal stability assay in human liver microsomes; format: in vitro ADME; settings: remaining compound after 30-min incubation in HLM
Procedure: as §1
The microsomal stability of each compound was determined using human liver microsomes (HLM, Celsis In-vitro Technologies, Baltimore, MD, USA). Microsomes were thawed and diluted to a concentration of 2 mg/mL in 50 mM sodium phosphate buffer pH 7.4. Each compound was diluted in 4 mM NADPH (made in the phosphate buffer above) to a concentration of 10 µM. Two identical incubation plates were prepared to act as a 0 min and a 30 min time point assay. 30 µL of each compound dilution was added in duplicate to the wells of a U-bottom 96-well plate and warmed at 37 °C for approximately 5 min. Verapamil, lidocaine, and propranolol at 10 µM concentration were utilized as reference compounds in this experiment. Microsomes were also pre-warmed at 37 °C before the addition of 30 µL to each well of the plate resulting in a final concentration of 1 mg/mL. The reaction was terminated at the appropriate time point (0 or 30 min) by addition of 60 µL of ice-cold 0.3 M trichloroacetic acid (TCA) per well. The plates were centrifuged for 10 min at 112× g and the supernatant fraction transferred to a fresh U-bottom 96-well plate. Plates were sealed and frozen at −20 °C prior to MS analysis. LC-MS/MS was used to quantify the peak area response of each compound before and after incubation with HLM using MS tune settings established and validated for each compound. These peak intensity measurements were used to calculate the percentage remaining after incubation with HLM for each hit compound. Reported values are the average of 1–3 measurements.

human 11β-HSD1 [6] = biological target: T2, human 11β-HSD1; assay: Cellular 11β-HSD1 enzyme inhibition assay (HEK293 stably transfected, cortisol by LC/MS); format: cell-based; settings: for inhibition at 10 µM: HEK293 transfected with human 11β-HSD1, read-out: HEK hHSD1 % inh at 10 µM
Procedure: Those compounds with submicromolar IC50 values (4, 6, 8, 9 and 16) were further evaluated in terms of cellular potency, selectivity over 11β-HSD2, and metabolic stability as follows (Table 2, 5th, 6th, and 7th column, respectively). Cellular potency was assessed using Human Embryonic Kidney 293 (HEK293) cells stably transfected with the 11β-HSD1 gene. Cells were incubated with substrate (cortisone) and percentage of inhibition was determined by measuring the conversion of cortisone to cortisol by LC/MS. The results were in line with the previous results obtained in the microsomal assay.
The cellular 11β-HSD1 enzyme inhibition assay was performed using HEK293 cells stably transfected with the human 11β-HSD1 gene. Cells were incubated with substrate (cortisone) and product (cortisol) was determined by LC/MS. Cells were plated at 2 × 10^4 cells/well in a 96-well poly-D-lysine coated tissue culture microplate (Greiner Bio-one, Monroe, NC, USA) and incubated overnight at 37 °C in 5% CO2 […]. Compounds to be tested were solubilized in 100% dimethylsulfoxide (DMSO) at 10 mM and serially diluted in water and 10% DMSO to final concentration of 10 µM in 10% DMSO. Then 10 µL of each test dilution and 10 µL of 10% DMSO (for low and high control) were dispensed into the well of a new 96-well microplate (Greiner Bio-one). Medium was removed from the cell assay plate and 100 µL of Dulbecco’s Modified Eagle’s Medium DMEM solution (containing 1% penicillin, 1% streptomycin and 300 nM cortisone) added to each well. Cells were incubated for 2 h at 37 °C in 5% CO2 […]. Following incubation, medium was removed from each well into an Eppendorf containing 500 µL of ethyl acetate, mixed by vortex and incubated at r.t. for 5 min. A calibration curve of known concentrations of cortisol in assay medium was also set up and added to 500 µL of ethyl acetate, vortexed and incubated as above. The supernatant of each Eppendorf was removed to a 96-deep-well plate and dried down under […] at 65 °C. Each well was solubilized in 100 µL 70:30 H2O:acetonitrile (ACN) and removed to a 96-well V-bottomed plate for LC/MS analysis. Separation was carried out on a Sunfire 150 × 2.1 mm, […] column using a H2O:ACN gradient profile. Typical retention times were 2.71 min for cortisol and 2.80 min for cortisone. The peak area was calculated and the concentration of each compound determined from the calibration curve. Reported values are the average of 1–3 measurements.

human 11β-HSD1 [7] = biological target: T2, human 11β-HSD1; design: method as in PMID 21471376, PMID 26306982; settings: previous inhibitors of the group; read-out: hHSD1 IC50; cited from earlier work
mHSD1 = test system: mHSD1; design: method as in PMID 21471376, PMID 26306982; settings: murine enzyme; cited from earlier work
[8] = design: method as in PMID 21471376, PMID 26306982; settings: remaining compound in mouse liver microsomes; cited from earlier work
[9] = test system: Senescence-Accelerated Mouse Prone 8 (SAMP8); design: method as in PMID 28818766; settings: 12-month-old SAMP8 mice, four weeks; cited from earlier work
[10] = 10 µM, HEK293 transfected with human 11β-HSD2
[11] = HEK293 transfected with human 11β-HSD2

| SMILES | HLM % Parent [1] [%] | HEK hHSD2 % inh 10 µM (human 11β-HSD2 [2]; [10]) [%] | inhibition at 10 µM (human 11β-HSD1 [3]) [%] | IC50 (human 11β-HSD1 [3]) [nM] | inhibition at 10 µM (human 11β-HSD2 [4]; [11]) [%] | HLM % Parent [5] [%] | inhibition at 10 µM (human 11β-HSD1 [6]) [%] | selectivity index against 11β-HSD2 isoform (human 11β-HSD2 [2]; 11β-HSD2 versus 11β-HSD1) | IC50 (human 11β-HSD2 [2]; [11]) [nM] | IC50 (human 11β-HSD1 [7]) [nM] | IC50 (mHSD1) [nM] | MLM % Parent [8] [%] | effect on memory deficits [9] | neuroprotective action [9] | melting point [°C] | HEK hHSD2 % inh at 10 µM (human 11β-HSD2 [4]; [10]) [%] | selectivity index over 11β-HSD2 (human 11β-HSD2 [4]; 11β-HSD2 IC50 versus 11β-HSD1 IC50) [fold] | IC50 (human 11β-HSD2 [4]; inferred from 54% inhibition at 10 µM in HEK293 cells, read-out: IC50 against 11β-HSD2) [nM] | HEK hHSD1 % inh at 10 µM (human 11β-HSD1 [6]; HEK293 transfected with human 11β-HSD1) |
| --- | --- | --- | --- | --- | --- | --- | --- | --- | --- | --- | --- | --- | --- | --- | --- | --- | --- | --- | --- |
| O=C(NC1C2CC3CC(C2)CC1C3)C1CCCCC1 (stereo not drawn) [Compound 1] | 74 | 88 | – | – | – | – | – | – | – | – | – | – | – | – | – | – | – | – | – |
| O=C(C1CCCCC1)N1CC2C3C=CC(C4CC34)C2C1 (stereo not drawn) [Compound 2] | 27 | – | 100 | 19 | 69 | 27 | 100 | at least 50 fold | 1000 to 10000 | – | – | – | – | – | – | – | – | – | – |
| O=C(C1CCCCC1)N1CC2C3CCC(C4CC34)C2C1 (stereo not drawn) [Compound 3] | 94 | – | – | – | – | – | – | – | 100 to 1000 | 29 | 81 | 93 | prevented memory deficits | displayed a neuroprotective action through reduction of neuroinflammation and oxidative stress | – | – | – | – | – |
| N#Cc1ccc(N2CCN(c3ccc(C(=O)N4CC5C6C=CC(C7CC67)C5C4)cn3)CC2)cc1 (stereo not drawn) [Compound 16, 4-[[4-[5-(4-Azatetracyclo[5.3.2. 0^2,6.0^8,10]dodec-11-en-4-yl)carbonyl]pyridin-2-yl]piperazin-1-yl]benzonitrile] | – | – | 100 | 377 | 54 | 13 | 100 | – | – | – | – | – | – | – | 160 to 161 | 53 | 30 | ~10000 | complete inhibition |

— paper PMC6017749, “Exploring N-acyl-4-azatetracyclo[5.3.2.0^2,6.0^8,10]dodec-11-enes as 11β-HSD1 Inhibitors” (Molecules : A Journal of Synthetic Chemistry and Natural …, 2018)
